Test results as given in ChEMBL document CHEMBL3745645, “Synthesis, in vitro antitumor activity, dihydrofolate reductase inhibition, DNA intercalation and structure-activity relationship studies of 1,3,5-triazine analogues” (Bioorg Med Chem Lett, 2016).
pIC50: −log10 of the molar value. The source made the active and inactive calls. The rule behind the calls is not given here.

Experiments:
NCI-H460 = test: Cytotoxicity against human NCI-H460 cells at 10 uM after 48 hrs by SRB assay; format: functional; details: NCI-H460, 48 h, read-out: GI
A549 = test: Cytotoxicity against human A549 cells after 48 hrs by SRB assay; format: functional; details: A549, 48 h, pooled result: one value given for 8 cell lines, strains, targets or settings
SK-MEL-2 = test: Cytotoxicity against human SK-MEL-2 cells at 10 uM after 48 hrs by SRB assay; format: functional; details: SK-MEL-2, 48 h, read-out: GI
NCI-H322M = test: Cytotoxicity against human NCI-H322M cells at 10 uM after 48 hrs by SRB assay; format: functional; details: read-out: GI
SR [1] = test: Cytotoxicity against human SR cells after 48 hrs by SRB assay; format: functional
MDA-MB-231 = test: Cytotoxicity against human MDA-MB-231 cells at 10 uM after 48 hrs by SRB assay; format: functional; details: MDA-MB-231, 48 h, read-out: GI
MCF7 [2] = test: Cytotoxicity against human MCF7 cells at 10 uM after 48 hrs by SRB assay; format: functional; details: MCF7, 48 h, read-out: GI
[3] = Cytotoxicity against human SF268 cells after 48 hrs by SRB assay; format: functional; details: SF-268, 48 h, pooled result: one value given for 6 cell lines, strains, targets or settings
[4] = Cytotoxicity against human PC3 cells after 48 hrs by SRB assay; format: functional; details: PC-3, 48 h; for GI50 / TGI: pooled result: one value given for 2 cell lines, strains, targets or settings
[5] = Cytotoxicity against human HCT116 cells at 10 uM after 48 hrs by SRB assay; format: functional; details: HCT-116, 48 h, read-out: GI
NCI-H522 = test: Cytotoxicity against human NCI-H522 cells at 10 uM after 48 hrs by SRB assay; format: functional; details: NCI-H522, 48 h, read-out: GI
K562 [6] = test: Cytotoxicity against human K562 cells after 48 hrs by SRB assay; format: functional; details: K562, 48 h
Calf thymus DNA [7] = test: Binding affinity to calf thymus DNA by fluorescence spectrophotometric analysis; format: nucleic-acid assay; details: Bos taurus
[8] = Cytotoxicity against human MOLT4 cells after 48 hrs by SRB assay; format: functional; details: MOLT-4, 48 h, read-out: LC50 (the source's name)
ACHN = test: Cytotoxicity against human ACHN cells at 10 uM after 48 hrs by SRB assay; format: functional; details: read-out: GI
[9] = Cytotoxicity against human IGROV1 cells at 10 uM after 48 hrs by SRB assay; format: functional; details: IGROV-1, 48 h, read-out: GI
[10] = Cytotoxicity against human SF539 cells at 10 uM after 48 hrs by SRB assay; format: functional; details: SF-539, 48 h, read-out: GI
KM12 = test: Cytotoxicity against human KM12 cells at 10 uM after 48 hrs by SRB assay; format: functional; details: KM12, 48 h, read-out: GI
Dihydrofolate reductase = target: T1, Dihydrofolate reductase (Homo sapiens, UniProt P00374); test: Inhibition of human recombinant DHFR expressed in Escherichia coli by spectrophotometric analysis
T1 sequence (P00374 whole entry): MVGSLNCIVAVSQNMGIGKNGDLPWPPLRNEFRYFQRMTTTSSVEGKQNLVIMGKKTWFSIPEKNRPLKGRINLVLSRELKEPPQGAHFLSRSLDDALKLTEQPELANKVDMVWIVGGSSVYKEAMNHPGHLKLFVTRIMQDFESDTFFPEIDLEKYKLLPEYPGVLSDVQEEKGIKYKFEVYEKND

[11] = Cytotoxicity against human SNB75 cells at 10 uM after 48 hrs by SRB assay; format: functional; details: SNB-75, 48 h, read-out: GI
[12] = Cytotoxicity against human SW620 cells at 10 uM after 48 hrs by SRB assay; format: functional; details: SW-620, 48 h, read-out: GI
MCF7 [13] = test: Cytotoxicity against human MCF7 cells after 48 hrs by SRB assay; format: functional; details: MCF7, 48 h, pooled result: one value given for 6 cell lines, strains, targets or settings
[14] = Cytotoxicity against human HL-60(TB) cells after 48 hrs by SRB assay; format: functional; details: HL-60, 48 h, read-out: LC50 (the source's name)
K562 [15] = test: Cytotoxicity against human K562 cells at 10 uM after 48 hrs by SRB assay; format: functional; details: K562, 48 h, read-out: GI
T47D = test: Cytotoxicity against human T47D cells at 10 uM after 48 hrs by SRB assay; format: functional; details: read-out: GI
[16] = Cytotoxicity against human COLO205 cells at 10 uM after 48 hrs by SRB assay; format: functional; details: COLO 205, 48 h, read-out: GI
A498 = test: Cytotoxicity against human A498 cells at 10 uM after 48 hrs by SRB assay; format: functional; details: A498, 48 h, read-out: GI
[17] = Cytotoxicity against human Hs 578T cells at 10 uM after 48 hrs by SRB assay; format: functional; details: read-out: GI
Calf thymus DNA [18] = test: Binding affinity to calf thymus DNA assessed as melting temperature by spectrophotometric analysis (reference value: 60 degC); format: nucleic-acid assay; details: Bos taurus
Malme-3M = test: Cytotoxicity against human MALME-3M cells at 10 uM after 48 hrs by SRB assay; format: functional; details: read-out: GI
SR [19] = test: Cytotoxicity against human SR cells at 10 uM after 48 hrs by SRB assay; format: functional
[20] = Cytotoxicity against human OVCAR5 cells at 10 uM after 48 hrs by SRB assay; format: functional; details: OVCAR-5, 48 h, read-out: GI
MDA-MB-468 = test: Cytotoxicity against human MDA-MB-468 cells at 10 uM after 48 hrs by SRB assay; format: functional; details: MDA-MB-468, 48 h, read-out: GI
HT-29 = test: Cytotoxicity against human HT-29 cells at 10 uM after 48 hrs by SRB assay; format: functional; details: HT-29, 48 h, read-out: GI
[21] = Cytotoxicity against human HOP92 cells at 10 uM after 48 hrs by SRB assay; format: functional; details: HOP-92, 48 h, read-out: GI
786-0 = test: Cytotoxicity against human 786-0 cells at 10 uM after 48 hrs by SRB assay; format: functional; details: 786-0, 48 h, read-out: GI
[22] = Cytotoxicity against human RXF393 cells at 10 uM after 48 hrs by SRB assay; format: functional; details: RXF 393, 48 h, read-out: GI
[23] = Cytotoxicity against human OVCAR8 cells at 10 uM after 48 hrs by SRB assay; format: functional; details: OVCAR-8, 48 h, read-out: GI
SK-MEL-5 = test: Cytotoxicity against human SK-MEL-5 cells at 10 uM after 48 hrs by SRB assay; format: functional; details: SK-MEL-5, 48 h, read-out: GI
[24] = Cytotoxicity against human SF268 cells at 10 uM after 48 hrs by SRB assay; format: functional; details: SF-268, 48 h, read-out: GI
[25] = Cytotoxicity against human Caki1 cells at 10 uM after 48 hrs by SRB assay; format: functional; details: CAKI-1, 48 h, read-out: GI
[26] = Cytotoxicity against human MOLT4 cells at 10 uM after 48 hrs by SRB assay; format: functional; details: MOLT-4, 48 h, read-out: GI

SMILES: COc1ccc(-c2nc(Nc3ccc(F)cc3)nc(Nc3ccc4c(c3)nc(C)n4Cc3ccccc3)n2)cc1
- inhibition of growth at 10 µM (NCI-H460): 69.7%
- GI50 (A549): 5.14 µM
- LC50 (A549): > 100 µM
- TGI (A549): 20.9 µM
- inhibition of growth at 10 µM (SK-MEL-2): 51.8%
- inhibition of growth at 10 µM (NCI-H322M): 17.6%
- LC50 (concentration killing 50% of cells) (SR [1]): > 100 µM
- inhibition of growth at 10 µM (MDA-MB-231): 68.8%
- inhibition of growth at 10 µM (MCF7 [2]): 77.4%
- GI50 [3]: 4.98 µM
- LC50 (concentration killing 50% of cells) [3]: > 100 µM
- TGI [3]: > 100 µM
- LC50 [4]: > 100 µM
- GI50 [4]: 5.35 µM
- TGI [4]: > 100 µM
- inhibition of growth at 10 µM [5]: 76.6%
- inhibition of growth at 10 µM (NCI-H522): 44.6%
- LC50 (K562 [6]): > 100 µM
- Ka (Calf thymus DNA [7]): 1.5 ×10⁴ /M
- CC50 [8]: > 100 µM
- inhibition of growth at 10 µM (ACHN): 62.9%
- inhibition of growth at 10 µM [9]: 63.6%
- inhibition of growth at 10 µM [10]: 32.2%
- inhibition of growth at 10 µM (KM12): 74%
- pIC50 (Dihydrofolate reductase): 6.49
- inhibition of growth at 10 µM [11]: 32%
- inhibition of growth at 10 µM [12]: 54.3%
- GI50 (MCF7 [13]): 3.6 µM
- LC50 (concentration killing 50% of cells) (MCF7 [13]): > 100 µM
- TGI (MCF7 [13]): 23.4 µM
- CC50 [14]: > 100 µM
- inhibition of growth at 10 µM (K562 [15]): 83.4%
- inhibition of growth at 10 µM (T47D): 88.5%
- inhibition of growth at 10 µM [16]: 71.8%
- inhibition of growth at 10 µM (A498): 27.3%
- inhibition of growth at 10 µM [17]: 45.5%
- Tm (Calf thymus DNA [18]): 67.5 °C
- inhibition of growth at 10 µM (Malme-3M): 47.2%
- growth inhibition (GI) (SR [19]): Active
- inhibition of growth at 10 µM [20]: 11.9%
- inhibition of growth at 10 µM (MDA-MB-468): 71.6%
- inhibition of growth at 10 µM (HT-29): 91.1%
- inhibition of growth at 10 µM [21]: 60.3%
- inhibition of growth at 10 µM (786-0): 53.3%
- inhibition of growth at 10 µM [22]: 64.3%
- inhibition of growth at 10 µM [23]: 82.1%
- inhibition of growth at 10 µM (SK-MEL-5): 52.9%
- inhibition of growth at 10 µM [24]: 53.1%
- inhibition of growth at 10 µM [25]: 16.8%

SMILES: Cc1nc2cc(Nc3nc(Nc4ccc(F)cc4)nc(-c4cccs4)n3)ccc2n1Cc1ccccc1
- inhibition of growth at 10 µM (NCI-H460): 60.4%
- GI50 (A549): 7.62 µM
- LC50 (A549): 55.4 µM
- TGI (A549): 33.1 µM
- inhibition of growth at 10 µM (SK-MEL-2): 27.1%
- LC50 (concentration killing 50% of cells) (SR [1]): > 100 µM
- inhibition of growth at 10 µM (MDA-MB-231): 30.9%
- inhibition of growth at 10 µM (MCF7 [2]): 67.1%
- GI50 [3]: 4.66 µM
- LC50 (concentration killing 50% of cells) [3]: 43 µM
- TGI [3]: 14.4 µM
- LC50 [4]: > 100 µM
- GI50 [4]: 5.2 µM
- TGI [4]: 52.2 µM
- inhibition of growth at 10 µM [5]: 75.8%
- inhibition of growth at 10 µM (NCI-H522): 46.5%
- LC50 (K562 [6]): > 100 µM
- Ka (Calf thymus DNA [7]): 4.21 ×10⁴ /M
- CC50 [8]: > 100 µM
- inhibition of growth at 10 µM (ACHN): 54.4%
- inhibition of growth at 10 µM [26]: 76.5%
- inhibition of growth at 10 µM [9]: 51.7%
- inhibition of growth at 10 µM [10]: 40.1%
- inhibition of growth at 10 µM (KM12): 74.8%
- pIC50 (Dihydrofolate reductase): 6.14
- inhibition of growth at 10 µM [11]: 47.8%
- inhibition of growth at 10 µM [12]: 31.9%
- GI50 (MCF7 [13]): 5.24 µM
- LC50 (concentration killing 50% of cells) (MCF7 [13]): 79.2 µM
- TGI (MCF7 [13]): 21.9 µM
- CC50 [14]: > 100 µM
- inhibition of growth at 10 µM (K562 [15]): 56.9%
- inhibition of growth at 10 µM (T47D): 76.7%
- inhibition of growth at 10 µM [16]: 43.2%
- inhibition of growth at 10 µM (A498): 44%
- inhibition of growth at 10 µM [17]: 49.7%
- Tm (Calf thymus DNA [18]): 68.5 °C
- inhibition of growth at 10 µM (Malme-3M): 22.4%
- inhibition of growth at 10 µM (SR [19]; read-out: GI): 82%
- inhibition of growth at 10 µM [20]: 7.98%
- inhibition of growth at 10 µM (MDA-MB-468): 66.8%
- inhibition of growth at 10 µM (HT-29): 79.5%
- inhibition of growth at 10 µM [21]: 78%
- inhibition of growth at 10 µM (786-0): 62.5%
- inhibition of growth at 10 µM [22]: 74.1%
- inhibition of growth at 10 µM [23]: 63%
- inhibition of growth at 10 µM (SK-MEL-5): 23.5%
- inhibition of growth at 10 µM [24]: 36.3%
- inhibition of growth at 10 µM [25]: 29.8%
